Reference: PubChem BioAssay AID200 (DTP/NCI, 2004)
“And” between values parts separate entries of the source, which are not always exact repeats. Equal values may be shown once. Toxic doses and inconclusive results are not listed. Where a SMILES comes first, the peptide text is derived from it. [ ]: non-standard residue; d: D form. The star is where a group is joined. Cbz = O=C(OCc1ccccc1)*; Nva = CCC[CH](N)C(=O)O

Test system: B6C3F1 mice, B16 melanoma ip, median survival T/C
Test: NCI In Vivo Anticancer Drug Screen. Data for tumor model B16 Melanoma (intraperitoneal) in B6C3F1 mice
Conditions: endpoint: median survival time, higher = longer survival
Method in brief: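 Readout: survival or tumor size in treated mice relative to vehicle controls (T/C). Model uses transplantable tumors grown in mice.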

[1] = dose: 12.5 mg/kg/injection, schedule: Q01DX009 (ip), vehicle: saline
[2] = dose: 25.0 mg/kg/injection, schedule: Q01DX009 (ip), vehicle: saline
[3] = dose: 50.0 mg/kg/injection, schedule: Q01DX009 (ip), vehicle: saline
[4] = dose: 100.0 mg/kg/injection, schedule: Q01DX009 (ip), vehicle: saline
[5] = dose: 200.0 mg/kg/injection, schedule: Q01DX009 (ip), vehicle: saline
[6] = dose: 25.0 mg/kg/injection, schedule: Q01DX009 (ip), vehicle: saline with Tween-80
[7] = dose: 50.0 mg/kg/injection, schedule: Q01DX009 (ip), vehicle: saline with Tween-80
[8] = dose: 100.0 mg/kg/injection, schedule: Q01DX009 (ip), vehicle: saline with Tween-80
[9] = dose: 100.0 mg/kg/injection, schedule: Q01DX009 (ip), vehicle: Klucel (hydroxypropylcellulose) (HPC)
[10] = dose: 200.0 mg/kg/injection, schedule: Q01DX009 (ip), vehicle: Klucel (hydroxypropylcellulose) (HPC)
[11] = dose: 400.0 mg/kg/injection, schedule: Q01DX009 (ip), vehicle: Klucel (hydroxypropylcellulose) (HPC)
[12] = dose: 6.25 mg/kg/injection, schedule: Q01DX009 (ip), vehicle: saline with Tween-80
[13] = dose: 12.5 mg/kg/injection, schedule: Q01DX009 (ip), vehicle: saline with Tween-80
[14] = dose: 200.0 mg/kg/injection, schedule: Q01DX009 (ip), vehicle: saline with Tween-80

In the case of Cn1cnc([N+](=O)[O-])c1Sc1ncn[nH]1, the T/C [1] is reported as 108 % of control, the T/C (dose: 12.5 mg/kg/injection, schedule: Q01DX009 (ip), vehicle: suspension in saline) is reported as 109 % of control and the T/C [2] is reported as 102 % of control. The T/C (dose: 25.0 mg/kg/injection, schedule: Q01DX009 (ip), vehicle: suspension in saline) was 115 % of control, the T/C [3] was 108 % of control and the T/C (dose: 50.0 mg/kg/injection, schedule: Q01DX009 (ip), vehicle: suspension in saline) was 100 % of control. The T/C [4] was 108 % of control, the T/C (dose: 100.0 mg/kg/injection, schedule: Q01DX009 (ip), vehicle: suspension in saline) was 101 % of control and the T/C [5] was 108 % of control. For the same compound, the T/C (dose: 200.0 mg/kg/injection, schedule: Q01DX009 (ip), vehicle: suspension in saline) was 102 % of control.

N=c1c(C(=O)OCc2ccccc2)ncc(CCl)n1O was tested, and the T/C [6] was 94 % of control, the T/C [7] was 95 % of control and the T/C [8] was 99 % of control.

O=C1CNC(=O)N1CN1CCOCC1 was tested, and the T/C (dose: 50.0 mg/kg/injection, schedule: Q01DX009 (ip), vehicle: Klucel (hydroxypropylcellulose) (HPC)) was 94 % of control, the T/C [9] was 94 % of control and the T/C [10] was 115 % of control. For the same compound, the T/C [11] was 101 % of control.

C=C(C(=O)O)C(N)C(=O)O (configuration not stated) was tested, and the T/C [2] was 97 % of control, the T/C [3] was 106 % of control and the T/C [4] was 106 % of control. For the same compound, the T/C [5] was 90 % of control.

For COc1c(O)cc2c(c1OC)-c1ccc(SC)c(=O)cc1C(NC(C)=O)CC2 (configuration not stated), the T/C (dose: 1.25 mg/kg/injection, schedule: Q01DX009 (ip), vehicle: Klucel (hydroxypropylcellulose) (HPC)) was 160 % of control, the T/C (dose: 1.8 mg/kg/injection, schedule: Q01DX009 (ip), vehicle: Klucel (hydroxypropylcellulose) (HPC)) was 180 % of control and 182 % of control and 186 % of control and the T/C (dose: 2.5 mg/kg/injection, schedule: Q01DX009 (ip), vehicle: Klucel (hydroxypropylcellulose) (HPC)) was 156 % of control and 167 % of control. The T/C (dose: 3.0 mg/kg/injection, schedule: Q01DX009 (ip), vehicle: Klucel (hydroxypropylcellulose) (HPC)) was 178 % of control and 184 % of control and 198 % of control and the T/C (dose: 10.0 mg/kg/injection, schedule: Q01DX009 (ip), vehicle: Klucel (hydroxypropylcellulose) (HPC)) was 180 % of control.

CC(C)(C)N(C(=O)OCC1c2ccccc2-c2ccccc21)C(CO)C(=O)O (configuration not stated) was tested, and the T/C [9] was 96 % of control.

CN(C)N=Nc1cccc(C(N)=O)c1 was tested, and the T/C [3] was 119 % of control and the T/C [4] was 67 % of control.

With CC1=CC2c3cccc4[nH]cc(c34)CC2N(C)C1 (configuration not stated) the T/C (dose: 2.5 mg/kg/injection, schedule: Q01DX009 (ip), vehicle: suspension in saline) was 103 % of control, the T/C (dose: 5.0 mg/kg/injection, schedule: Q01DX009 (ip), vehicle: suspension in saline) was 101 % of control and the T/C (dose: 10.0 mg/kg/injection, schedule: Q01DX009 (ip), vehicle: suspension in saline) was 101 % of control. The T/C (dose: 20.0 mg/kg/injection, schedule: Q01DX009 (ip), vehicle: suspension in saline) was 95 % of control.

CCCCc1ccc2nc(NC(=O)OC)[nH]c2c1 was tested, and the T/C [6] was 154 % of control, the T/C [7] was 165 % of control and the T/C [8] was 165 % of control.

For O=C(O)[C@H](Cc1ccccc1)N1C(=O)c2ccccc2C1=O, the T/C (dose: 50.0 mg/kg/injection, schedule: Q01DX009 (ip), vehicle: DMSO) was 96 % of control, the T/C (dose: 100.0 mg/kg/injection, schedule: Q01DX009 (ip), vehicle: DMSO) was 99 % of control and the T/C (dose: 200.0 mg/kg/injection, schedule: Q01DX009 (ip), vehicle: DMSO) was 99 % of control. For the same compound, the T/C (dose: 800.0 mg/kg/injection, schedule: Q01DX009 (ip), vehicle: DMSO) was 88 % of control.

In the case of CCC1CN2CCC3(C(=O)Nc4ccccc43)C2CC1/C(=C/OC)C(=O)OC (configuration not stated), the T/C [12] is reported as 90 % of control, the T/C [13] is reported as 108 % of control and the T/C [6] is reported as 93 % of control. For the same compound, the T/C [7] was 93 % of control.

For COc1cc(C)c2c(c1C=O)Oc1c(c(C)c(O)c3c1C(O)OC3=O)OC2=O (configuration not stated), the T/C (dose: 3.12 mg/kg/injection, schedule: Q01DX009 (ip), vehicle: saline) was 94 % of control, the T/C (dose: 6.25 mg/kg/injection, schedule: Q01DX009 (ip), vehicle: saline) was 100 % of control and the T/C [1] was 105 % of control. The T/C [2] was 98 % of control and the T/C [3] was 98 % of control.

OC(CN1CCCC2CCCCC21)c1cc2ccccc2c2ccccc12 (configuration not stated) was tested, and the T/C [6] was 100 % of control, the T/C [7] was 100 % of control and the T/C [8] was 96 % of control and 97 % of control.

With COc1cccc(C2NC(=O)c3c(n[nH]c3N)S2)c1O (configuration not stated) the T/C [13] was 101 % of control, the T/C [6] was 106 % of control and the T/C [7] was 104 % of control. The T/C [8] was 107 % of control and the T/C [14] was 95 % of control.

CCCC(NC(=O)OCc1ccccc1)C(=O)NC(CO)C(=O)O (configuration not stated) (Cbz-[Nva]-Ser-OH; configuration not given here) was tested, and the T/C [9] was 102 % of control, the T/C [10] was 100 % of control and the T/C [11] was 103 % of control.

With COc1c2occc2c(N=NN(C)C)c2ccc(=O)oc12 the T/C [12] was 98 % of control, the T/C [13] was 99 % of control and the T/C [6] was 104 % of control. For the same compound, the T/C [7] was 107 % of control.

With O=C(NC(CSSCC(NC(=O)c1ccccc1)C(=O)O)C(=O)O)c1ccccc1 (configuration not stated) the T/C [7] was 109 % of control, the T/C [8] was 108 % of control and the T/C [14] was 106 % of control. The T/C (dose: 400.0 mg/kg/injection, schedule: Q01DX009 (ip), vehicle: saline with Tween-80) was 100 % of control.

With O=[N+]([O-])O.[Ga] the T/C (dose: 4.0 mg/kg/injection, schedule: Q01DX009 (ip), vehicle: saline) was 105 % of control, the T/C (dose: 4.0 mg/kg/injection, schedule: Q01DX009 (ip), vehicle: water) was 99 % of control and the T/C (dose: 8.0 mg/kg/injection, schedule: Q01DX009 (ip), vehicle: saline) was 98 % of control. The T/C (dose: 8.0 mg/kg/injection, schedule: Q01DX009 (ip), vehicle: water) was 95 % of control, the T/C (dose: 16.0 mg/kg/injection, schedule: Q01DX009 (ip), vehicle: saline) was 101 % of control and the T/C (dose: 16.0 mg/kg/injection, schedule: Q01DX009 (ip), vehicle: water) was 100 % of control. The T/C [2] was 101 % of control, the T/C (dose: 32.0 mg/kg/injection, schedule: Q01DX009 (ip), vehicle: saline) was 95 % of control and the T/C (dose: 32.0 mg/kg/injection, schedule: Q01DX009 (ip), vehicle: water) was 97 % of control. The T/C [3] was 100 % of control, the T/C (dose: 64.0 mg/kg/injection, schedule: Q01DX009 (ip), vehicle: saline) was 91 % of control and the T/C (dose: 64.0 mg/kg/injection, schedule: Q01DX009 (ip), vehicle: water) was 96 % of control.

CO[C@H](/C(C)=C/C=C/C(C)=C/c1coc(C)n1)[C@H](C)[C@H]1C[C@@H](O)[C@@]2(C)O[C@H]2/C=C/[C@@H](C)[C@@H]2C[C@@H](CC(=O)O2)C[C@H]2O[C@@H]2C(=O)O1 was tested, and the T/C (dose: 0.01 mg/kg/injection, schedule: Q01DX009 (ip), vehicle: Klucel (hydroxypropylcellulose) (HPC)) was 118 % of control and 98 % of control and 102 % of control, the T/C (dose: 0.01 mg/kg/injection, schedule: Q01DX009 (ip), vehicle: other) was 94 % of control and 106 % of control and the T/C (dose: 0.03 mg/kg/injection, schedule: Q01DX009 (ip), vehicle: Klucel (hydroxypropylcellulose) (HPC)) was 111 % of control and 112 % of control and 97 % of control. For the same compound, the T/C (dose: 0.03 mg/kg/injection, schedule: Q01DX009 (ip), vehicle: other) was 110 % of control, the T/C (dose: 0.1 mg/kg/injection, schedule: Q01DX009 (sc), vehicle: Klucel (hydroxypropylcellulose) (HPC)) was 154 % of control and the T/C (dose: 0.4 mg/kg/injection, schedule: Q01DX009 (sc), vehicle: Klucel (hydroxypropylcellulose) (HPC)) was 117 % of control.

With CC1(C)N=C(N)N=C(N)N1c1ccc(F)c(C(F)(F)F)c1 the T/C (dose: 0.37 mg/kg/injection, schedule: Q01DX009 (ip), vehicle: saline) was 93 % of control, the T/C (dose: 0.75 mg/kg/injection, schedule: Q01DX009 (ip), vehicle: saline) was 96 % of control and the T/C (dose: 1.5 mg/kg/injection, schedule: Q01DX009 (ip), vehicle: saline) was 94 % of control. The T/C (dose: 3.0 mg/kg/injection, schedule: Q01DX009 (ip), vehicle: saline) was 99 % of control, the T/C (dose: 6.0 mg/kg/injection, schedule: Q01DX009 (ip), vehicle: saline) was 106 % of control and the T/C (dose: 12.0 mg/kg/injection, schedule: Q01DX009 (ip), vehicle: saline) was 113 % of control. The T/C [1] was 120 % of control.

In the case of C#CCNC1=C(C)C(=O)C2=C(C1=O)[C@H](COC(N)=O)[C@]1(OC)[C@@H]3N[C@@H]3CN21, the T/C (dose: 0.75 mg/kg/injection, schedule: Q01DX009 (ip), vehicle: distilled water + Tween-80) is reported as 91 % of control, the T/C (dose: 1.5 mg/kg/injection, schedule: Q01DX009 (ip), vehicle: distilled water + Tween-80) is reported as 98 % of control and the T/C (dose: 6.25 mg/kg/injection, schedule: Q01DX009 (ip), vehicle: distilled water + Tween-80) is reported as 241 % of control. The T/C (dose: 12.0 mg/kg/injection, schedule: Q01DX009 (ip), vehicle: distilled water + Tween-80) was 98 % of control.
